Common to all, as to type: biochemical
For one test, the target named is cSRC (h) (Homo sapiens, UniProt P12931). The test can be described thus: Kinase profiling, glass-fiber filter technology: cSRC. As to conditions: test concentration of 10^−6 M; read-out: cSRC inhibition score. As to the method:
(§1) The in vitro inhibition of a panel of kinases was assessed using the glass-fiber filter technology as described by Davies, S. P. et al., Biochem J. (2000), 351; p. 95-105.
(§2) In the glass-fiber filter technology the activity of the kinase of interest is measured using an appropriate substrate that is incubated with the aforementioned kinase protein in the presence of (^33P) radiolabeled ATP. (^33P) Phosporylation of the substrate is subsequently measured as radioactivity bound on a glassfiber-filter.
(§3) All kinases are pre-diluted to a 10× working concentration prior to addition into the assay. The composition of the dilution buffer for each kinase is detailed below.
(§4) All substrates are dissolved and diluted to working stocks in de-ionised water.
(§5) In a final reaction volume of 25 μl, cSRC (h) (5-10 mU) is incubated with 8 mM MOPS pH 7.0, 0.2 mM EDTA, 250 μM KVEKIGEGTYGVVYK (Cdc2 peptide), 10 mM MgAcetate and [γ-^33P-ATP] (specific activity approx. 500 cpm/pmol, concentration as required). The reaction is initiated by the addition of the MgATP mix. After incubation for 40 minutes at room temperature, the reaction is stopped by the addition of 5 μl of a 3% phosphoric acid solution.
10 μl of the reaction is then spotted onto a P30 filtermat and washed three times for 5 minutes in 75 mM phosphoric acid and once in methanol prior to drying and scintillation counting.

A further test has as its target Fgr human (Homo sapiens, UniProt P09769). In words: Kinase profiling, glass-fiber filter technology: Fgr. The conditions noted are these: test concentration of 10^−6 M; read-out: Fgr inhibition score. The procedure: as §1, §2, §3, §4
as §5, with “Fgr human” for “cSRC (h)”, “0.1 mg/ml poly(Glu, Tyr) 4:1,” for “250 μM KVEKIGEGTYGVVYK (Cdc2 peptide),”, “solution. 10 μl of the reaction is then spotted onto a Filtermat A and washed three times for 5 minutes in 75 mM phosphoric acid and once in methanol prior to drying and scintillation counting.” for “solution.”

The next test has as its target Fyn human (Homo sapiens, UniProt P06241). In words: Kinase profiling, glass-fiber filter technology: Fyn. The conditions noted are these: test concentration of 10^−6 M; read-out: Fyn inhibition score. As to the method: as §1, §2, §3, §4
as §5, with “Fyn human” for “cSRC (h)”, “50” for “8”, “Tris” for “MOPS”, “7.5, 0.1” for “7.0, 0.2”, “EGTA, 0.1 mM Na3VO4,” for “EDTA,”, “solution. 10 μl of the reaction is then spotted onto a P30 filtermat and washed three times for 5 minutes in 75 mM phosphoric acid and once in methanol prior to drying and scintillation counting.” for “solution.”

The next test deals with Lyn (h) (Homo sapiens, UniProt P07948). In words: Kinase profiling, glass-fiber filter technology: Lyn. As to conditions: test concentration of 10^−6 M; read-out: Lyn inhibition score. As to the method:
as §1, §2, §3, §4
(§6) In a final reaction volume of 25 μl, Lyn (h) (5-10 mU) is incubated with 50 mM Tris pH 7.5, 0.1 mM EGTA, 0.1 mM Na3VO4, 0.1% β-mercaptoethanol, 0.1 mg/ml poly(Glu, Tyr) 4:1, 10 mM MgAcetate and [γ-^33P-ATP] (specific activity approx. 500 cpm/pmol, concentration as required). The reaction is initiated by the addition of the MgATP mix. After incubation for 40 minutes at room temperature, the reaction is stopped by the addition of 5 μl of a 3% phosphoric acid solution. 10 μl of the reaction is then spotted onto a Filtermat A and washed three times for 5 minutes in 75 mM phosphoric acid and once in methanol prior to drying and scintillation counting.

The target in the next test is Flt1 human (Homo sapiens, UniProt P17948). The test can be described thus: Kinase profiling, glass-fiber filter technology: Flt1. The conditions noted are these: test concentration of 10^−6 M; read-out: Flt1 inhibition score. The procedure: as §1, §2, §3, §4
Chain of Flt1 human (P17948 27-1338): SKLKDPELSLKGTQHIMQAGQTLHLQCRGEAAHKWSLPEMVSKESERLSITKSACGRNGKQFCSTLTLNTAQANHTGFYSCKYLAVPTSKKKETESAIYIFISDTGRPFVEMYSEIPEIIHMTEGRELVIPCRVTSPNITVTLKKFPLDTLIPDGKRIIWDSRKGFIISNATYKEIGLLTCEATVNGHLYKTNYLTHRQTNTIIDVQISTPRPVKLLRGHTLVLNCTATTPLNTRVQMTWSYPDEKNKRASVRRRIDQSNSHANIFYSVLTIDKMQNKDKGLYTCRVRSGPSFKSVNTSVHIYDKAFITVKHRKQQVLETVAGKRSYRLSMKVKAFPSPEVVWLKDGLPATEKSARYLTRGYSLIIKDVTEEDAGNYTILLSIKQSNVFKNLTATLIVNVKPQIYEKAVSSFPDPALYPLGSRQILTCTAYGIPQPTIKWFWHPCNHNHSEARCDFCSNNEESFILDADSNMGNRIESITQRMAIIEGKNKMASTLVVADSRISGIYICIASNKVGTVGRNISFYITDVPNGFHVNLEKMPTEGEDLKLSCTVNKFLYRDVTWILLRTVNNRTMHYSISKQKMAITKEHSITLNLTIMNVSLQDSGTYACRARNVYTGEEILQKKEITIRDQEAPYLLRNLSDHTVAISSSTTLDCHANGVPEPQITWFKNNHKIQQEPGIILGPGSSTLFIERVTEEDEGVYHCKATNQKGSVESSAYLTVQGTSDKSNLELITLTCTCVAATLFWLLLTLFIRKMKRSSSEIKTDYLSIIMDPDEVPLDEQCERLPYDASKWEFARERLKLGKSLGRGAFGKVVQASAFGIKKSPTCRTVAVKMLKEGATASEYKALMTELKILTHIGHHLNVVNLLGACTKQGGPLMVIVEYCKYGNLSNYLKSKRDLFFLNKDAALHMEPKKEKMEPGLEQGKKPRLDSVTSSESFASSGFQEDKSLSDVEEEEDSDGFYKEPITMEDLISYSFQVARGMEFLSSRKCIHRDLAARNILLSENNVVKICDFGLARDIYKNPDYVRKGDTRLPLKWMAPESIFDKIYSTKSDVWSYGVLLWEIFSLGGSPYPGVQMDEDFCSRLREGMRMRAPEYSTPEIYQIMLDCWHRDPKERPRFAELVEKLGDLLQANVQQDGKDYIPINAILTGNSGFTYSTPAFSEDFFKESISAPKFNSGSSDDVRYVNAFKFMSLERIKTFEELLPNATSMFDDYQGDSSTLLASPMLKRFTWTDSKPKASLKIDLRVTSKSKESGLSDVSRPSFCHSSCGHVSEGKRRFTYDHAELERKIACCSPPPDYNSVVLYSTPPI
as §6, with “μl, Flt1 human” for “μl, Lyn (h)”, “with 8” for “with 50”, “mM MOPS” for “mM Tris”, “pH 7.0, 0.2” for “pH 7.5, 0.1”, “mM EDTA, 250 μM KKKSPGEYVNIEFG,” for “mM EGTA, 0.1 mM Na3VO4, 0.1% β-mercaptoethanol, 0.1 mg/ml poly(Glu, Tyr) 4:1,”, “a P30 filtermat” for “a Filtermat A”

For another test, the target named is Blk (m) (Mus musculus, UniProt P16277). The test can be described thus: Kinase profiling, glass-fiber filter technology: Blk. As to conditions: test concentration of 10^−6 M; read-out: Blkl inhibition score. As to the method: as §1, §2, §3, §4
Chain of Blk (m) (P16277 whole entry): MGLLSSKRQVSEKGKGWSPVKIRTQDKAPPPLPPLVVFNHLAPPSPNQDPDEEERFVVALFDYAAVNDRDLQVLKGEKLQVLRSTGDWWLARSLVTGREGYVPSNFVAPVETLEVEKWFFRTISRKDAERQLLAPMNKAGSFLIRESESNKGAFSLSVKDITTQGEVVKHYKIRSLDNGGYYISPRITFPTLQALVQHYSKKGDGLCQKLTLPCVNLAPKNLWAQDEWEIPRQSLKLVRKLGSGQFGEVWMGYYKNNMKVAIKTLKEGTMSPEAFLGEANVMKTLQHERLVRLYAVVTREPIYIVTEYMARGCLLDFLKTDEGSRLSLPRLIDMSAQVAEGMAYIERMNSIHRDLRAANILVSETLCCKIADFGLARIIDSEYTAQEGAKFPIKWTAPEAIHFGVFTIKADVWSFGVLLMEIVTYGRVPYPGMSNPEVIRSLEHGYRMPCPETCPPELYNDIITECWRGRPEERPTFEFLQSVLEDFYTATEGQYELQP
as §6, with “Blk (m)” for “Lyn (h)”, “[γ-33P-ATP]” for “[γ-^33P-ATP]”

Another test has as its target ErbB4 (h) (Homo sapiens, UniProt Q15303). In words: Kinase profiling, glass-fiber filter technology: ErbB4. The conditions noted are these: test concentration of 10^−6 M; read-out: ErbB4 inhibition score. As to the method:
as §1, §2, §3, §4
In a final reaction volume of 25 μl, ErbB4 (h) (5-10 mU) is incubated with 8 mM MOPS pH 7.0, 0.2 mM EDTA, 10 mM MnCl2, 0.1 mg/ml poly(Glu, Tyr) 4:1, 10 mM MgAcetate and [γ-33P-ATP] (specific activity approx. 500 cpm/pmol, concentration as required). The reaction is initiated by the addition of the MgATP mix. After incubation for 40 minutes at room temperature, the reaction is stopped by the addition of 5 μl of a 3% phosphoric acid solution. 10 μl of the reaction is then spotted onto a Filtermat A and washed three times for 5 minutes in 75 mM phosphoric acid and once in methanol prior to drying and scintillation counting.

Chain of Fgr human (P09769 whole entry): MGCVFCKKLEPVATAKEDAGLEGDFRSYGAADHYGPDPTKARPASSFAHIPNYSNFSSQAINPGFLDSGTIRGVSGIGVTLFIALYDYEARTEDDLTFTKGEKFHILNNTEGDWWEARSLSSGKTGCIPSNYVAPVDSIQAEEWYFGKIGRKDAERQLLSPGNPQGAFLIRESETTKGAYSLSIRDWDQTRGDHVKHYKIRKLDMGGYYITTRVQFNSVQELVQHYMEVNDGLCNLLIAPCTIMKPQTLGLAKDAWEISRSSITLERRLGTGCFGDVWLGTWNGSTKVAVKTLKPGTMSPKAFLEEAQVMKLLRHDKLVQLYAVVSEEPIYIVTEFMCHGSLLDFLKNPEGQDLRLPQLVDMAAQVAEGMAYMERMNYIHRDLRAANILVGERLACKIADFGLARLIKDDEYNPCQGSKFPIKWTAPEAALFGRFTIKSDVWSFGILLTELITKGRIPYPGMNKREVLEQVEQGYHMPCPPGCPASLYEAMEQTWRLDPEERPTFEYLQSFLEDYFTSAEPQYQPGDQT
Chain of Lyn (h) (P07948 whole entry): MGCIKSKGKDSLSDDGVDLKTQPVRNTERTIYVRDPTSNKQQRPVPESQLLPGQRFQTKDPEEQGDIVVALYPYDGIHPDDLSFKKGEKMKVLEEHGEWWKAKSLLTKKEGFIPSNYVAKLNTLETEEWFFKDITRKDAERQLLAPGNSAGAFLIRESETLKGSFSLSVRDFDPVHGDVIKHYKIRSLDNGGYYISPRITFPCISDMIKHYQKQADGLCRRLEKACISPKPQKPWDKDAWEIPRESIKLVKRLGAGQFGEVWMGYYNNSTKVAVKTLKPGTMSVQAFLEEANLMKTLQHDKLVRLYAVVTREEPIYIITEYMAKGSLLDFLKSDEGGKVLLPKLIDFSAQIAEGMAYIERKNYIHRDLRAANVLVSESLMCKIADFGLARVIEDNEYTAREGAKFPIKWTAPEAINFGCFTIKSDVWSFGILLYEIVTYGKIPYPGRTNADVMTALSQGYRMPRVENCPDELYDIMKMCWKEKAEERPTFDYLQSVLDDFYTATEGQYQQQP
Chain of Fyn human (P06241 whole entry): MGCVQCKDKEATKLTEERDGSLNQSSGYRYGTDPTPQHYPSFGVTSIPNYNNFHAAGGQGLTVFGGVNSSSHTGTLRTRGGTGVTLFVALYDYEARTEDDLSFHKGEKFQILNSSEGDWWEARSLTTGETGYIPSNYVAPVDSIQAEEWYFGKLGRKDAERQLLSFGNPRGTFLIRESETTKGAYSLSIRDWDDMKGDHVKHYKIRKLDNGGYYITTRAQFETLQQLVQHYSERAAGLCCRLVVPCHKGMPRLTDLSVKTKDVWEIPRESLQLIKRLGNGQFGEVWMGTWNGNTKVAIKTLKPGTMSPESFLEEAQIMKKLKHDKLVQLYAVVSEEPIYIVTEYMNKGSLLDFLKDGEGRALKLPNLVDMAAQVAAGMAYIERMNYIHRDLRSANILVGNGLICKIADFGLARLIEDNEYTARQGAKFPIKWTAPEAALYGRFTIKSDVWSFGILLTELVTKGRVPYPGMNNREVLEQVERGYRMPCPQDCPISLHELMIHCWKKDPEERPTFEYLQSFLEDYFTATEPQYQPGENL
Chain of ErbB4 (h) (Q15303 26-1308): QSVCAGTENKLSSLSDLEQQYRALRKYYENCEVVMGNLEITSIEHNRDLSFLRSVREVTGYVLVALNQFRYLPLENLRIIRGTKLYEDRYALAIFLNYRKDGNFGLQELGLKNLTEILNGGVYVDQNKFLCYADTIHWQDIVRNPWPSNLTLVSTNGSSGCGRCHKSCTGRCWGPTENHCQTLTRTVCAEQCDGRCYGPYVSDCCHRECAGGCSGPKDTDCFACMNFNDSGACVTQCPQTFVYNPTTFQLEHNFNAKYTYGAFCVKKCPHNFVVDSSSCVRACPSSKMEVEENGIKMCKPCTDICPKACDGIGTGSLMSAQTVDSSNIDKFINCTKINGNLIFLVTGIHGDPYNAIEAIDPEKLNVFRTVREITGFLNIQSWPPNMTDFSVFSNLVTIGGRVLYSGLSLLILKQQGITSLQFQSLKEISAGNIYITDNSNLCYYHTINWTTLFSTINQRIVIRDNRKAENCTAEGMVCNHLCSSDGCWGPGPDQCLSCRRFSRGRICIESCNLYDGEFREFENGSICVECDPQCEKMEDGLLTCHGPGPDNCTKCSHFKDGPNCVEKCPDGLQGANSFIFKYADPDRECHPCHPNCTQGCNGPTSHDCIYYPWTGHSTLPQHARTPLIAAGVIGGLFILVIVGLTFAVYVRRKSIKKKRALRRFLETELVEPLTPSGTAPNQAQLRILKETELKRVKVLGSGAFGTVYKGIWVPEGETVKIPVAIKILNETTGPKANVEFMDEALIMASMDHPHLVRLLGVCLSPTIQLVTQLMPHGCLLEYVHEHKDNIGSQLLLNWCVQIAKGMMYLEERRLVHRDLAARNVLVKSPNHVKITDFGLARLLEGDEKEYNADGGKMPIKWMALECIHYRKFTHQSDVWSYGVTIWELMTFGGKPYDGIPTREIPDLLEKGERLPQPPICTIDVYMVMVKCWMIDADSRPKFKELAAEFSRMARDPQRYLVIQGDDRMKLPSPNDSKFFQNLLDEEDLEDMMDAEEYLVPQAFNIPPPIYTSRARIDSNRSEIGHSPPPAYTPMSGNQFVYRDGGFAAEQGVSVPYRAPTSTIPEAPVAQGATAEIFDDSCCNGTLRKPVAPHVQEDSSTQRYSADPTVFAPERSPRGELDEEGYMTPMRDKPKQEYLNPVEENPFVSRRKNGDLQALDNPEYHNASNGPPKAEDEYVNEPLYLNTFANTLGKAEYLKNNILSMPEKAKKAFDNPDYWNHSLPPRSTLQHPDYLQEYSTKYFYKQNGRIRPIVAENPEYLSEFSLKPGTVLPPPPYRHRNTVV

With `CN1CCCCCOc2cc3c(ncnc3cc2OC[C@@H](O)CN2CCS(=O)(=O)CC2)Nc2cc(Br)ccc2C1` [Compound 12], the inhibition (usually the relative decrease from the control value, in per cent) at 1 µM at cSRC (h) was greater than 80%; on Fgr human, 60 to 80%; on Fyn human, greater than 80%; at Lyn (h) it was greater than 80%; on Flt1 human it was 60 to 80%; at Blk (m), greater than 80%. Also, the inhibition at 1 µM on ErbB4 (h) was 60 to 80%.

(Values after US9688691B2, “Macrocyclic quinazole derivatives and their use as MTKI” (Janssen Pharmaceutica NV, priority 2004, dated 2017).)
